Data on five molecules can be found in patent US20160051594A1, “Therapeutic Compositions and Uses Thereof” (MANUKA HEALTH NEW ZEALAND LIMITED, priority 2013, published 2016).

One may read the inhibition as the relative decrease from the control value, in per cent. A word on the % inhibition: it is the share of the control response that was lost under treatment. Higher therefore signals a response far below the control.

For test [1], the system named is human colorectal cancer cell line HCT-116. Kind of test: Apoptotic assay (PE Annexin V, flow cytometry), HCT-116. In kind it is cell-based. The note with it: for % Apoptosis: 50 hours. On the procedure: (§1) The human colorectal cell line HCT-116 was obtained from the American Type Culture Collection (Rockville, Md.). The butyrate resistant cell line was derived from HCT-116 by culturing the parental cells in increasing concentrations of butyrate as previously described in Bordonaro […]. The activation of beta-catenin by Wnt signaling mediates the effects of histone deacetylase inhibitors. Exp Cell Res. 2007; 313:1652-66 (including references therein). Colorectal cells were grown in alpha-MEM medium with 10% fetal bovine serum and antibiotics. The concentration of CAPE in the propolis-cyclodextrin complex CD1 was 1.79 μg/100 μg propolis solid encapsulated in the cyclodextrin, or 0.41 μg/100 μg cyclodextrin complex. Stock solutions were prepared in dimethyl sulfoxide, except for butyrate, which was dissolved in water at 1 M concentration. […] All cells (floating and attached) were harvested and stained for apoptotic and necrotic markers using a PE Annexin V Apoptosis Detection Kit I (BD Biosciences, #559763). Flow cytometry analyses were carried out with FACS Aria II and DiVa software. […] All data are presented as mean±standard deviation from at least three sets of independent experiments. Student T-test analysis was used to determine the significance of statistical differences. Differences were considered significant at P<0.05.
For orientation: In flow cytometry, cells or beads pass a laser one at a time.

For test [2], the system named is human colorectal adenocarcinoma cells (DLD-1). Kind of test: MTT proliferation assay, DLD-1 cells (Examples 2 and 3). In kind it is cell-based. As to the method:
Test samples shown below in Table 3 were assessed for their ability to modulate the viability and proliferation of human colorectal adenocarcinoma cells (DLD-1) as assessed by the MTT assay. A positive control, 5-Fluorouracil (5-FU) was included in addition to an unsupplemented cell control (negative control) in the study. All samples were normalized to 200 μg/ml total solids.
Thus, DLD-1 colon cancer cells were exposed to: • a tincture originally containing 25% solids by mass propolis which then diluted in the test solution to give 200 μg/ml total solids. The tincture was used to manufacture the cyclodextrin-encapsulated propolis samples. • Cyclodextrin propolis (γ-cyclodextrin encapsulated with 25% propolis tincture), CD1 from Table 2 in Example 1 • Cyclodextrin propolis+CAPE (γ-cyclodextrin encapsulated 25% propolis tincture with added CAPE to double the concentration of CAPE relative to the tincture), CD2 from Table 2 in Example 1 • γ-cyclodextrin alone (CAVAMAX W8 food gamma cyclodextrin) • 5-flurorouracil at 7.50 ng/ml as a positive control
All cyclodextrin-encapsulated samples and γ-cyclodextrin alone were assayed on a per weight of sample, and so contain at most 50 μg/ml total solids as propolis.
Human colorectal adenocarcinoma epithelial cell lines were revived from cryostorage and cultured in the presence of the test and reference samples. The culture conditions for the cells were those described by the supplier of the cells (ATCC). An MTT assay was then performed on the cultures to determine the effect of the samples on the cell proliferation.
• 1. The human colorectal adenocarcinoma cells (DLD-1) obtained from the American Type Culture Collection USA were revived from cryostorage. • 2. Following initial propagation using the media described above (see Medium Preparation), the culture was subcultured using the trypsin-EDTA as follows. The media was removed and 5 ml of the trypsin-EDTA solution added and incubated at 37° C. for 5 min or until all the cells had detached. The trypsin was neutralised by adding an equal volume of DMEM medium and the culture centrifuged at 300 g (1200 rpm) for 5 min at 4° C. • 3. The supernatant was decanted and the cell pellets resuspended in medium DMEM, FBS (10%), penicillin (100 units/ml), streptomycin (100 μg/ml). The cells were cultured at 37° C. in 5% CO2/95% air. • 4. After reaching confluence, the cells were detached using trypsin-EDTA and centrifuged as described in 2 above. • 5. The supernatants were discarded and the cells resuspended in DMEM and supplements as described in 3 above at 7.5×10^4 cells per ml. A total volume of 23 mls of the cell suspension was required. • 6. Into each well of three 96 well plates, 180 μl of the cells ([…]) or medium was added as indicated in the plate layout below. The plates were incubated at 5% CO2/95% air at 37° C. for 8 h which was sufficient to allow the cells to strongly adhere. • 7. To each well, 20 μl of each of the test samples or positive control was added as indicated in the diagrams above. To the wells labelled ‘medium’ or ‘cells only’, 20 μl of 15% ETOH/HBSS was added. Each sample was assessed in replicates of 6, while the controls on all three plates were assessed in replicates of 9 (combined triplicates) • 8. The total volume in each well was 200 μl. • 9. The plates were incubated at 37° C. in 5% CO2/95% air for 19 h.
• 1. On completion of the incubation, 20 μl of MTT working solution (5 mg/ml) was added to all wells and incubated for 2 hr at 37° C. in 5% CO2/95% air. • 2. 100 μl of MTT lysis buffer was then added and the plates incubated for 3 hr at 37° C. on a shaker in 5% CO2/95% air, followed by pipetting to break up and dissolve the crystals until fully solubilized. The plates were centrifuged at 1200 rpm for 10 minutes to pelletize any remaining insoluble material. From each well 200 μl aliquots were transferred to fresh 96 well plates. The plates were read by a VersaMax microplate reader at 570 nm. • 3. […]
On the technique in general: Formazan colour is commonly taken as a measure of viable cells.

For test [3], the system named is HCT-116-R cells (butyrate resistant, derived from HCT-116). Put plainly: Apoptotic assay (PE Annexin V, flow cytometry), butyrate-resistant HCT-116-R. In kind it is cell-based, human. The note with it: for % Apoptosis: HCT-116-R, 50 hours. As to the method:
as §1

Test [4] has as its system human oesophageal squamous cell carcinoma cell line (KYSE-30). Kind of test: Gastro-intestinal cancer anti-proliferative MTT assay, KYSE-30 (Examples 5-9). In kind it is cell-based. The note with it: Example 9. On the procedure:
Sample CD5 γ-cyclodextrin as prepared in Example 1 was assessed for its ability to modulate the viability and proliferation of human colorectal adenocarcinoma cells (DLD-1); human colon cancer cell line (HCT-116); human gastric carcinoma cell line (NCI-N87); and human oesophageal squamous cell carcinoma cell line (KYSE-30) as assessed by the MTT assay. The positive control, 5-fluorouracil (5-FU) was included at three concentrations; in addition to an unsupplemented cell control as a negative control in the study. [Do we include test compounds for comparison?.
The four human gastrointestinal carcinoma cell lines were revived from cryostorage and cultured in the presence of the test and reference samples. An MTT assay was then performed on the cultures to determine the effect of the samples on the cell viability and proliferation.
The test sample, and all other test samples in Examples 5-8 were dissolved in 15% ethanol/Hanks Balanced Salt Solution (ETOH)/HBSS to a concentration of 2 mg/mL solids. In the assay the final concentration of the samples was 200 μg/ml with a final EtOH concentration of 1.5%.
• 1. Human colorectal adenocarcinoma cells (ATCC CCI-221, DLD-1)(ATCC, Bethesda, Md., USA) • 2. Human gastric carcinoma cells (ATCC CRL-5822, NCI-N87)(ATCC, Bethesda, Md., USA) • 3. Human oesophageal squamous cell carcinoma (ECACC, KYSE-30)(Sigma Aldrich, Auckland, NZ) • 4. Human colon carcinoma cells (ECACC HCT-116)(Sigma Aldrich, Auckland, NZ) • 5. Penicillin-streptomycin solution: 10000 units/ml penicillin, 10 mg/ml streptomycin in 0.9% NaCl (Sigma Cat #P-0781). Stored at −20° C. • 6. For DLD-1 cells: DMEM culture medium (Invitrogen Cat #12100-046). Stored at 4° C. • 7. For NCI-N87 cells: RPMI-1640 medium modified to contain 2 mM L-glutamine, 10 mM HEPES, 1 mM sodium pyruvate, 4500 mg/L glucose, and 1500 mg/L sodium bicarbonate (Sigma R6504). Stored at 4° C. • 8. For KYSE-410 cells: RPMI-1640 medium modified to contain 2 mM L-glutamine (Sigma R6504). Stored at 4° C. • 9. For HCT-116 cells: McCoy's 5A medium modified to contain 2 mM L-glutamine (Sigma M48792). Stored at 4° C. • 10. […]

On to `O=C(/C=C/c1ccc(O)c(O)c1)OCCc1ccccc1` [CAPE, caffeic acid phenethyl ester], for which the “% Apoptosis” value in test [1] (HCT-116, 1.2 ug/ml) is 18.3%; in test [3] (1.2 ug/ml), 9.7%. Further, the “apoptosis relative to the negative control” value in test [1] (HCT-116, CAPE 1.2 ug/ml) is “no significant increase in apoptosis”; in test [3] (HCT-R, CAPE 1.2 ug/ml alone), “did not undergo significant apoptosis”. Also, the “Mean (OD 570 nm)” value in test [2] (DLD-1, 200 μg/ml) turned out to be 0.0777.

For `OC[C@H]1O[C@@H]2O[C@H]3[C@H](O)[C@@H](O)[C@@H](O[C@H]4[C@H](O)[C@@H](O)[C@@H](O[C@H]5[C@H](O)[C@@H](O)[C@@H](O[C@H]6[C@H](O)[C@@H](O)[C@@H](O[C@H]7[C@H](O)[C@@H](O)[C@@H](O[C@H]8[C@H](O)[C@@H](O)[C@@H](O[C@H]9[C@H](O)[C@@H](O)[C@@H](O[C@H]1[C@H](O)[C@H]2O)O[C@@H]9CO)O[C@@H]8CO)O[C@@H]7CO)O[C@@H]6CO)O[C@@H]5CO)O[C@@H]4CO)O[C@@H]3CO` [CAVAMAX W8 Food gamma Cyclodextrin, gamma-cyclodextrin], the inhibition at 200 µg/mL came to 8.8% in test [4] (Homo sapiens, KYSE-30, KYSE-30, 200 μg/ml) and 9.1% in test [2] (Homo sapiens, DLD-1, DLD-1, 200 μg/ml). The “Mean (OD 570 nm)” value in test [4] (KYSE-30, 200 μg/ml) came out at 0.3056; in test [2] (DLD-1, 200 μg/ml), 0.6405. Moreover, the “% inhibition” value is listed as 8.85% in test [4] (KYSE-30, 200 μg/ml, listed as Gamma-CD) and 9.11% in test [2] (DLD-1, 200 μg/ml).

As to `O=c1cc(-c2ccccc2)oc2cc(O)cc(O)c12` [Chrysin], the “Mean (OD 570 nm)” value in test [2] (DLD-1, 200 μg/ml) worked out at 0.1233.

Turning to `O=c1c(O)c(-c2ccccc2)oc2cc(O)cc(O)c12` [Galangin], in test [2] (DLD-1, 200 μg/ml), the “Mean (OD 570 nm)” value is on record as 0.1411.

With `CCCC(=O)O` [butyrate], the “% Apoptosis” value in test [1] (HCT-116, 5 mM) was found to be 57.5%; in test [3] (5 mM), 11.2%. The “apoptosis relative to cells only” value in test [1] (HCT-116, butyrate 5 mM) stood at 35%.
